Source: patent US11623924B2, “Modulators of alpha-1 antitrypsin” (Vertex Pharmaceuticals Incorporated, priority 2018, dated 2023)

biological target: T1, NL20 human bronchial epithelial cells expressing human Z-AAT (Homo sapiens, UniProt P01009, E366K); experiment: AAT Function Assay (MSD Assay NL20-SI Cell Line); type: cell-based; conditions: functionally active AAT (AAT-hNE complex) in supernatant of NL20 cells expressing human Z-AAT; read-out: NL20 Func. (EC50)
T1 construct: expressed in transfected cells; host or cells: NL20 human bronchial epithelial cells (NL20-SI line, doxycycline added)
Procedure: A. AAT Function Assay (MSD Assay NL20-SI Cell Line)
Alpha-1 antitrypsin (AAT) is a SERPIN (serine protease inhibitor) that inactivates enzymes by binding to them covalently. This assay measured the amount of functionally active AAT in a sample in the presence of the disclosed compounds 1-215 by determining the ability of AAT to form an irreversible complex with human neutrophil Elastase (hNE). In practice, the sample (cell supernatant, blood sample, or other) was incubated with excess hNE to allow AAT-Elastase complex to be formed with all functional AAT in the sample. This complex was then captured to a microplate coated with an anti-AAT antibody. The complex captured to the plate was detected with a labeled anti-Elastase antibody and quantitated using a set of AAT standards spanning the concentration range present in the sample. Meso Scale Discovery (MSD) plate reader, Sulfo-tag labeling, and microplates were used to provide high sensitivity and wide dynamic range.
• 1. Harvest NL20 human bronchial epithelial cells expressing human Z-AAT in OptiMEM™ containing Pen/Strep (P/S) • 2. Seed at 16,000 cells/well in 30 μL (384 well plate) • 3. Centrifuge plates briefly up to speed (1200 rpm) and place into 37° C. incubator overnight Day 2: Compound Addition and Coating Plates with Capture Antibody Compound Addition: • 1. Dispense 40 μL of OptiMEM™ (P/S) with doxycycline (1:1000 stock=0.1 μM final) to each well of the compound plate using a multidrop Combi in hood • 2. Remove cell plate from incubator, flip/blot and take immediately to Bravo to transfer compounds • 3. Return plates to incubator overnight Coat MSD Plates • 1. Dilute capture antibody (Polyclonal Goat anti-AAT) to 5 μg/mL (1:200) in PBS (no BSA). • 2. Dispense 25 μL of diluted capture antibody into all wells of MSD 384-well High Bind plate using the Multidrop equipped with a standard cassette. • 3. Incubate overnight at 4° C. Prepare Blocker A (BSA) Solutions • 1. Prepare solution of 5% MSD Blocker A (BSA) following the manufacturer's instructions. • 2. Further dilute the 5% MSD Blocker A in PBS to 1% (Blocker A) as needed. Day 3: Run MSD Assay
Block Plates • 1. Wash plate 1× with 50 μL Wash buffer (PBS+0.5% Tween 20), and adds 35 μL 5% Block A buffer to block non-specific binding on washer dispenser • 2. Rotate plates on shaker for 1 hour at 600 rpm
Prepare M-AAT Standards • 1. Dilute M-AAT stock to 1.6 μg/mL in 1% BSA Blocker A (Stock in −70° C.); then prepare 12×1:2 serial dilutions in 1% Blocker A • 2. The top starting final concentration on MSD plate is 320 ng/mL. These dilutions correspond to a final concentration of 320, 160, 80, 40, 20, 10, 5, 2.5, 1.25, 0.625, 0.312, 0.156 ng/mL.
Dilution Plate • 1. Add 80 μL of 1% Assay buffer to all wells except columns 1/24 (standards) with Multidrop Combi • 2. Add diluted standards to columns 1 and 24 • 3. Centrifuge dilution plates 1200 rpm briefly
Cell Plate • 1. Aspirate columns which will have the standards from the cell plates in the hood using 16-pin aspirator
Prepare Human Neutrophil Elastase (hNE) • 1. Prepare 1 μg/mL Human Neutrophil Elastase by diluting in 1% Blocker A. • a. Small 100 μg vial—add 1 mL PBS (100 μg/mL) • i. This can then be diluted 1:100 in 1% Assay Buffer for a final 1 μg/mL concentration
MSD—Add hNE (20 μL/well) • 1. After the MSD plate has blocked for at least 1 hour, wash plate 1× with 50 μL Wash buffer (PBS+0.5% Tween 20) and then add 20 μL hNE to each well
Bravo—Cell Plate—Dilution Plate—MSD Plate
Using the Bravo aspirate 10 μL from the cell plate, transfer to the dilution plate (9-fold dilution)
• 1. Mix 25 μL 3×, then aspirate 5 μL, transfer to MSD plate (5-fold dilution) • 2. Mix 10 μL 3×. Total dilution is 45 fold. • 3. Shake plates at 600 rpm for 1.5 hours
Add Functional detection hNE antibody • 1. Wash plate 1× with wash buffer • 2. […]

T1 sequence (P01009 25-418 E366K): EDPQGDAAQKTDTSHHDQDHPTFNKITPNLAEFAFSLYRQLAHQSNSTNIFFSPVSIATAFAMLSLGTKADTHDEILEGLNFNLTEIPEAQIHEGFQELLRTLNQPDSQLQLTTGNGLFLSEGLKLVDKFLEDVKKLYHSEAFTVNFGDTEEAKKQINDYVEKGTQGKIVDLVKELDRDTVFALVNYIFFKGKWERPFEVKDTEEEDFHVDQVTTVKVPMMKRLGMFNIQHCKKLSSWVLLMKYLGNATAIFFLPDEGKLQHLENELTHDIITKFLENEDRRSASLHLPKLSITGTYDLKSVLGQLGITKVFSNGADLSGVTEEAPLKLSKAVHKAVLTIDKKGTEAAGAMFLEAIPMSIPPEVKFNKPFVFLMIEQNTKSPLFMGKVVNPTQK

`Cc1cc(-n2c(C(C)C)c(CC(C)C(=O)O)c3cc4[nH]ncc4cc32)ccc1F` (single isomer, unassigned) [Compound 20] and `Cc1cc(-n2c(C(C)C)c(C(C)CC(=O)O)c3cc4[nH]ncc4cc32)ccc1F` (single isomer, unassigned) [Compound 27] cannot be ordered by EC50: < 1160 nM for the first, < 1160 nM for the second.

`Cc1cc(-n2c(C(C)C)c(CC(C)C(=O)O)c3cc4[nH]ncc4cc32)ccc1F` (single isomer, unassigned) [Compound 21] and `Cc1cc(-n2c(C(C)C)c(C(C)CC(=O)O)c3cc4[nH]ncc4cc32)ccc1F` (single isomer, unassigned) [Compound 28] cannot be ordered by EC50: < 1160 nM for the first, < 1160 nM for the second.

`Cc1cc(-n2c(C(C)C)c(C3CC4(CC(C(=O)O)C4)C3)c3cc4[nH]ncc4cc32)ccc1F` (single isomer, unassigned) [Compound 25] and `CC(C)c1c(C2CC3(CC(C(=O)O)C3)C2)c2cc3[nH]ncc3cc2n1-c1ccc(F)cc1` (single isomer, unassigned) [Compound 35, 6-[5-(4-fluorophenyl)-6-isopropyl-1H-pyrrolo[2,3-f]indazol-7-yl]spiro[3.3]heptane-2-carboxylic acid] cannot be ordered by EC50: < 1160 nM for the first, < 1160 nM for the second.

`Cc1cc(-n2c(C(C)C)c(C3CC4(CC(C(=O)O)C4)C3)c3cc4[nH]ncc4cc32)ccc1F` (single isomer, unassigned) [Compound 26] and `CC(C)c1c(C2CC3(CC(C(=O)O)C3)C2)c2cc3[nH]ncc3cc2n1-c1ccc(F)cc1` (single isomer, unassigned) [Compound 36, 6-[5-(4-fluorophenyl)-6-isopropyl-1H-pyrrolo[2,3-f]indazol-7-yl]spiro[3.3]heptane-2-carboxylic acid] cannot be ordered by EC50: < 1160 nM for the first, < 1160 nM for the second.

First: Cc1cc(-n2c(C(C)C)c(C3CC4(CC(C(=O)O)C4)C3)c3cc4[nH]nc(C)c4cc32)ccc1F (single isomer, unassigned) [Compound 57, 6-[5-(4-fluoro-3-methyl-phenyl)-6-isopropyl-3-methyl-1H-pyrrolo[2,3-f]indazol-7-yl]spiro[3.3]heptane-2-carboxylic acid]
Second: [H][C@]1(C(=O)O)C[C@]2(C1)C[C@@]([H])(c1c(C3CCOCC3)n(-c3ccc(F)c(C)c3)c3cc4cn[nH]c4cc31)C2 (single isomer, unassigned) [Compound 91]
The EC50 of the first is higher: 1160 to 3000 nM for the first, < 1160 nM for the second.

First: Cc1cc(-n2c(C(C)C)c(C3CC4(CC(C(=O)O)C4)C3)c3cc4[nH]nc(C)c4cc32)ccc1F (single isomer, unassigned) [Compound 58, 6-[5-(4-fluoro-3-methyl-phenyl)-6-isopropyl-3-methyl-1H-pyrrolo[2,3-f]indazol-7-yl]spiro[3.3]heptane-2-carboxylic acid]
Second: [H][C@]1(C(=O)O)C[C@]2(C1)C[C@]([H])(c1c(C3CCOCC3)n(-c3ccc(F)c(C)c3)c3cc4cn[nH]c4cc31)C2 (single isomer, unassigned) [Compound 92]
The EC50 of the first is higher: 1160 to 3000 nM for the first, < 1160 nM for the second. The second is the more potent here.

`O=C(O)C1CC2(C1)CC(c1c(C3CCOCC3)n(-c3ccc(F)c(F)c3)c3cc4cn[nH]c4cc13)C2` (single isomer, unassigned) [Compound 67] and `O=C(O)C1CC2(C1)CC(c1c(C3CCOCC3)n(-c3ccc(F)c(Cl)c3)c3cc4cn[nH]c4cc13)C2` (single isomer, unassigned) [Compound 77] cannot be ordered by EC50: < 1160 nM for the first, < 1160 nM for the second.

Compared with `O=C(O)C1CC2(C1)CC(c1c(C3CCOCC3)n(-c3ccc(F)c(F)c3)c3cc4cn[nH]c4cc13)C2` (single isomer, unassigned) [Compound 68], `[H][C@]1(C(=O)O)C[C@]2(C1)C[C@@]([H])(c1c(C3CCOCC3)n(-c3ccc(F)cc3)c3cc4cn[nH]c4cc31)C2` (single isomer, unassigned) [Compound 109] is higher in EC50: < 1160 nM for the first, 1160 to 3000 nM for the second. The first is the more potent here.

First: CC1(C(=O)O)CC(c2c(C3CCOCC3)n(-c3ccc(F)c(F)c3)c3cc4cn[nH]c4cc23)C1 (single isomer, unassigned) [Compound 69]
Second: Cc1cc(-n2c(C3CCOCC3)c([C@H]3C[C@](C)(C(=O)O)C3)c3cc4[nH]ncc4cc32)ccc1F (single isomer, unassigned) [Compound 104]
The EC50 of the first is higher: > 3000 nM for the first, < 1160 nM for the second. The second is the more potent here.

Going from `CC1(C(=O)O)CC(c2c(C3CCOCC3)n(-c3ccc(F)c(F)c3)c3cc4cn[nH]c4cc23)C1` (single isomer, unassigned) [Compound 70] to `C[C@]1(C(=O)O)C[C@@H](c2c(C3CCOCC3)n(-c3ccc(F)cc3)c3cc4cn[nH]c4cc32)C1` (single isomer, unassigned) [Compound 114], the EC50 rises from < 1160 nM to > 3000 nM. The first is the more potent here.

First: O=C(O)[C@H]1C[C@H](Cc2c(C3CCOCC3)n(-c3ccc(F)c(F)c3)c3cc4cn[nH]c4cc23)C1 (single isomer, unassigned) [Compound 71]
Second: O=C(O)[C@H]1C[C@@H](Cc2c(C3CCOCC3)n(-c3ccc(F)c(F)c3)c3cc4cn[nH]c4cc23)C1 (single isomer, unassigned) [Compound 72]
The EC50 of the first is higher: > 3000 nM for the first, 1160 to 3000 nM for the second. The second is the more potent here.

First: O=C(O)[C@H]1CC[C@@H](Cc2c(C3CCOCC3)n(-c3ccc(F)c(F)c3)c3cc4cn[nH]c4cc23)CC1 (single isomer, unassigned) [Compound 73]
Second: O=C(O)[C@H]1CC[C@H](Cc2c(C3CCOCC3)n(-c3ccc(F)c(F)c3)c3cc4cn[nH]c4cc23)CC1 (single isomer, unassigned) [Compound 74]
The EC50 of the first is lower: < 1160 nM for the first, 1160 to 3000 nM for the second.

`O=C(O)C1CC(Cc2c(C3CCOCC3)n(-c3ccc(F)c(Cl)c3)c3cc4cn[nH]c4cc23)C1` (single isomer, unassigned) [Compound 80] and `Cc1cc(-n2c(C3CCOCC3)c(C[C@H]3C[C@@H](C(=O)O)C3)c3cc4[nH]ncc4cc32)ccc1F` (single isomer, unassigned) [Compound 97] cannot be ordered by EC50: < 1160 nM for the first, < 1160 nM for the second.

`O=C(O)C1CC(Cc2c(C3CCOCC3)n(-c3ccc(F)c(Cl)c3)c3cc4cn[nH]c4cc23)C1` (single isomer, unassigned) [Compound 81] and `Cc1cc(-n2c(C3CCOCC3)c(C[C@H]3C[C@H](C(=O)O)C3)c3cc4[nH]ncc4cc32)ccc1F` (single isomer, unassigned) [Compound 98] fall in the same range of EC50: 1160 to 3000 nM for the first, 1160 to 3000 nM for the second.

`Cc1cc(-n2c(C3CCOCC3)c([C@H]3C[C@H](CC(=O)O)C3)c3cc4[nH]ncc4cc32)ccc1F` (single isomer, unassigned) [Compound 94] and `Cc1cc(-n2c(C3CCOCC3)c([C@H]3C[C@@H](CC(=O)O)C3)c3cc4[nH]ncc4cc32)ccc1F` (single isomer, unassigned) [Compound 95] fall in the same range of EC50: 1160 to 3000 nM for the first, 1160 to 3000 nM for the second.

Going from `Cc1cc(-n2c(C3CCOCC3)c(CC3CC3C(=O)O)c3cc4[nH]ncc4cc32)ccc1F` (single isomer, unassigned) [Compound 101] to `Cc1cc(-n2c(C3CCOCC3)c(C[C@H]3CC[C@H](C(=O)O)CC3)c3cc4[nH]ncc4cc32)ccc1F` (single isomer, unassigned) [Compound 106], the EC50 falls from > 3000 nM to < 1160 nM.

Compared with `Cc1cc(-n2c(C3CCOCC3)c(CC3CC3C(=O)O)c3cc4[nH]ncc4cc32)ccc1F` (single isomer, unassigned) [Compound 102], `[H][C@]1(C(=O)O)C[C@]2(C1)C[C@]([H])(c1c(C3CCOCC3)n(-c3ccc(F)cc3)c3cc4cn[nH]c4cc31)C2` (single isomer, unassigned) [Compound 110] is lower in EC50: > 3000 nM for the first, 1160 to 3000 nM for the second. The second is the more potent here.
